From patent US20250340554A1, “5-Amino-1H-Pyrrolo[3,2-b]Pyridine-2-Carboxamide Derivatives as MTA-Cooperative Inhibitors of PRMT5” (BeOne Medicines I GmbH, priority 2023, published 2025)

Assays:
HCT116-mock-RNA-KO = experiment: Compounds cell killing in HCT116 isogenic pair (Cell Titer-Glo viability), mock-RNA-KO cells (MTAP wildtype); type: cell-based; details: Homo sapiens, HCT-116, 144 h, 6 days, 0-10 μM compound
Description: (§1) HCT116 cell line was obtained from ATCC (CCL-247). It has a mutation in codon 13 of the ras proto-oncogene and can be used as a positive control for PCR assays of mutation in this codon. HCT116-MTAP-KO was knocked-out-MTAP-gene based HCT116, and one single clone was passed for this assay. HCT116-mock-RNA-KO was knocked-out-mock-gene based HCT116 with MTAP wildtype genotype. The base medium for HCT116 isogenic pair is RPMI 1640, HEPES (Gibco, 22400105). To make the complete growth medium, add the following components to the base medium: fetal bovine serum to a final concentration of 10% (Gibco, 10099-141C). The cell line was grown in a humidified 5% CO2 atmosphere at 37° C. and regularly tested for the presence of mycoplasma with MycoAlert™ PLUS Mycoplasma Detection Kit (Lonza, LT07-710).
(§2) • Seed HCT116-mock-RNA-KO (400/well) or HCT116-MTAP-KO (400/well) cells into a 96-well plate (Greiner: 655090), 100 μL/well. • Incubate at 37° C., 5% CO2, overnight. • Add 50 μL fresh growth-medium containing serial dilution of compounds for a final compound concentration of 0-10 μM to each well. • Incubate at 37° C., 5% CO2, 6 days. • The cell viability detected by Cell Titer-Glo (Promega, G7573). Add 70 μL of CellTiter-Glo® reagent in each well. • Incubate at room temperature for 10 minutes to stabilize luminescent signal. • Analyze with Microplate Reader (TECAN, SPARK) and fit IC50 using Prism® 9.

HCT116-MTAP-KO = experiment: Compounds cell killing in HCT116 isogenic pair (Cell Titer-Glo viability), MTAP-KO cells; type: cell-based; details: Homo sapiens, HCT-116, 144 h, 6 days, 0-10 μM compound, * = more than 50% viability inhibition at tested concentration without a full curve
Description: as §1, §2

Row | SMILES | IC50 (HCT116-mock-RNA-KO) | IC50 (HCT116-MTAP-KO)
1 | Cc1cc2[nH]c(C(=O)N(Cc3ccc(-c4c(F)cccc4F)cn3)[C@@H]3CCCc4cccnc43)c(F)c2nc1N [Example A17, (R)-5-amino-N-((5-(2,6-difluorophenyl)pyridin-2-yl)methyl)-3-fluoro-6-methyl-N-(5,6,7,8-tetrahydroquinolin-8-yl)-1H-pyrrolo[3,2-b]pyridine-2-carboxamide] | 2840 nM | 66 nM
2 | Cc1cc2[nH]c(C(=O)N(Cc3ccc(-c4c(F)cccc4C#N)cn3)C3CCCc4cccnc43)cc2nc1N (stereo not shown) [Example A15, 5-amino-N-((5-(2-cyano-6-fluorophenyl)pyridin-2-yl)methyl)-6-methyl-N-(5,6,7,8-tetrahydroquinolin-8-yl)-1H-pyrrolo[3,2-b]pyridine-2-carboxamide] | 424 nM | 4.3 nM
3 | Cc1cc2[nH]c(C(=O)N(Cc3ccc(-c4ccccc4)cn3)[C@@H]3CCCc4cccnc43)cc2nc1N [Example A2, (R)-5-amino-6-methyl-N-((5-phenylpyridin-2-yl)methyl)-N-(5,6,7,8-tetrahydroquinolin-8-yl)-1H-pyrrolo[3,2-b]pyridine-2-carboxamide] | 486 nM | < 0.5 nM
4 | Cc1cc2[nH]c(C(=O)N(Cc3ccc(-c4c(F)cncc4F)cn3)[C@@H]3CCCc4cccnc43)cc2nc1N [Example A3, (R)-5-amino-N-((3′,5′-difluoro-[3,4′-bipyridin]-6-yl)methyl)-6-methyl-N-(5,6,7,8-tetrahydroquinolin-8-yl)-1H-pyrrolo[3,2-b]pyridine-2-carboxamide] | 49 nM | 0.008 nM
5 | Cc1cc2[nH]c(C(=O)N(Cc3ccc(-c4c(F)cccc4F)cn3)C3CCCc4c(C(C)(C)O)ccnc43)cc2nc1N (stereo not shown) [Example A7, 5-amino-N-((5-(2,6-difluorophenyl)pyridin-2-yl)methyl)-N-(4-(2-hydroxypropan-2-yl)-5,6,7,8-tetrahydroquinolin-8-yl)-6-methyl-1H-pyrrolo[3,2-b]pyridine-2-carboxamide] | 339 nM | < 4.6 nM
6 | Cc1cc2[nH]c(C(=O)N(Cc3ccc(-c4cn[nH]c4)c(C)n3)C3CCCc4cccnc43)cc2nc1N (stereo not shown) [Example A9, 5-amino-6-methyl-N-((6-methyl-5-(1H-pyrazol-4-yl)pyridin-2-yl)methyl)-N-(5,6,7,8-tetrahydroquinolin-8-yl)-1H-pyrrolo[3,2-b]pyridine-2-carboxamide] | 4180 nM | 86 nM
7 | Cc1cc2[nH]c(C(=O)N(Cc3ccc(-c4c(F)cccc4F)cn3)[C@@H]3CCCc4cccnc43)c(I)c2nc1N [Example A19, (R)-5-amino-N-((5-(2,6-difluorophenyl)pyridin-2-yl)methyl)-3-iodo-6-methyl-N-(5,6,7,8-tetrahydroquinolin-8-yl)-1H-pyrrolo[3,2-b]pyridine-2-carboxamide] | 288 nM | < 4.6 nM
8 | Cc1cc2[nH]c(C(=O)N(Cc3ccc(-c4c(F)cccc4F)cn3)CC3CC3)cc2nc1N [Example B5, 5-amino-N-(cyclopropylmethyl)-N-((5-(2,6-difluorophenyl)pyridin-2-yl)methyl)-6-methyl-1H-pyrrolo[3,2-b]pyridine-2-carboxamide] | 3620 nM | 606 nM
9 | Cc1cc2[nH]c(C(=O)N(Cc3ccc(-c4ccccc4)cn3)C3CC3)cc2nc1N [Example B4, 5-amino-N-cyclopropyl-6-methyl-N-((5-phenylpyridin-2-yl)methyl)-1H-pyrrolo[3,2-b]pyridine-2-carboxamide] | > 10000 nM | 7820 nM
10 | Cc1cc2[nH]c(C(=O)N(Cc3ccc(-c4ccccc4)cn3)C3CCCOC3)cc2nc1N (stereo not shown) [Example B8, 5-amino-6-methyl-N-((5-phenylpyridin-2-yl)methyl)-N-(tetrahydro-2H-pyran-3-yl)-1H-pyrrolo[3,2-b]pyridine-2-carboxamide] | > 10000 nM | 1350 nM
11 | Cc1cc2[nH]c(C(=O)N(Cc3ccc(-c4c(F)cccc4F)cn3)[C@@H]3CCCc4cccnc43)c(Br)c2nc1N [Example A5, (R)-5-amino-3-bromo-N-((5-(2,6-difluorophenyl)pyridin-2-yl)methyl)-6-methyl-N-(5,6,7,8-tetrahydroquinolin-8-yl)-1H-pyrrolo[3,2-b]pyridine-2-carboxamide] | 3340 nM | 167 nM
12 | CO[C@H]1C[C@H](N(Cc2ccc(-c3ccccc3)cn2)C(=O)c2cc3nc(N)c(C)cc3[nH]2)C1 [Example B6, 5-amino-N-((1r,3r)-3-methoxycyclobutyl)-6-methyl-N-((5-phenylpyridin-2-yl)methyl)-1H-pyrrolo[3,2-b]pyridine-2-carboxamide] | > 10000 nM | 1730 nM
13 | Cc1cc2[nH]c(C(=O)N(Cc3ccc(-c4c(F)cccc4Cl)cn3)C3CCCc4cccnc43)cc2nc1N (stereo not shown) [Example A14, 5-amino-N-((5-(2-chloro-6-fluorophenyl)pyridin-2-yl)methyl)-6-methyl-N-(5,6,7,8-tetrahydroquinolin-8-yl)-1H-pyrrolo[3,2-b]pyridine-2-carboxamide] | 1120 nM | 2.9 nM
14 | Cc1cc2[nH]c(C(=O)N(Cc3ccc(-c4ncnn4C)cn3)[C@@H]3CCCc4cccnc43)cc2nc1N [Example A13, (R)-5-amino-6-methyl-N-((5-(1-methyl-1H-1,2,4-triazol-5-yl)pyridin-2-yl)methyl)-N-(5,6,7,8-tetrahydroquinolin-8-yl)-1H-pyrrolo[3,2-b]pyridine-2-carboxamide] | > 10000 nM | 83 nM
15 | Cc1cc2[nH]c(C(=O)N(Cc3ccc(-c4c(F)cccc4F)cn3)[C@@H]3CCCc4cccnc43)cc2nc1N [Example A1, (R)-5-amino-N-((5-(2,6-difluorophenyl)pyridin-2-yl)methyl)-6-methyl-N-(5,6,7,8-tetrahydroquinolin-8-yl)-1H-pyrrolo[3,2-b]pyridine-2-carboxamide] | 155 nM | < 0.5 nM
16 | COCC(COC)N(Cc1ccc(-c2c(F)cccc2F)cn1)C(=O)c1cc2nc(N)c(C)cc2[nH]1 [Example B2, 5-amino-N-((5-(2,6-difluorophenyl)pyridin-2-yl)methyl)-N-(1,3-dimethoxypropan-2-yl)-6-methyl-1H-pyrrolo[3,2-b]pyridine-2-carboxamide] | 1220 nM | 5.5 nM
17 | Cc1cc2[nH]c(C(=O)N(Cc3ccc(-c4c(F)c(F)c(F)c(F)c4F)cn3)[C@@H]3CCCc4cccnc43)cc2nc1N [Example A11, (R)-5-amino-6-methyl-N-((5-(perfluorophenyl)pyridin-2-yl)methyl)-N-(5,6,7,8-tetrahydroquinolin-8-yl)-1H-pyrrolo[3,2-b]pyridine-2-carboxamide] | 1470 nM | < 4.6 nM
